In US4402975A, “Aminocarboxylic acids, amino alcohols, or the derivatives thereof, processes for production thereof, and pharmaceutical uses thereof” (Teijin Limited, priority 1980, dated 1983):
Structures can show the parent of a compound that is named as a salt. Each block holds one compound with its values, some of them ahead of it.

Key:
plasmin = target: T1, plasmin (Homo sapiens, UniProt P00747); assay: Antiplasmin activity (clot lysis time, fibrinogen/urokinase/thrombin); type: biochemical
T1 construct: fibrin clot lysis, native
T1 sequence (P00747 97-810): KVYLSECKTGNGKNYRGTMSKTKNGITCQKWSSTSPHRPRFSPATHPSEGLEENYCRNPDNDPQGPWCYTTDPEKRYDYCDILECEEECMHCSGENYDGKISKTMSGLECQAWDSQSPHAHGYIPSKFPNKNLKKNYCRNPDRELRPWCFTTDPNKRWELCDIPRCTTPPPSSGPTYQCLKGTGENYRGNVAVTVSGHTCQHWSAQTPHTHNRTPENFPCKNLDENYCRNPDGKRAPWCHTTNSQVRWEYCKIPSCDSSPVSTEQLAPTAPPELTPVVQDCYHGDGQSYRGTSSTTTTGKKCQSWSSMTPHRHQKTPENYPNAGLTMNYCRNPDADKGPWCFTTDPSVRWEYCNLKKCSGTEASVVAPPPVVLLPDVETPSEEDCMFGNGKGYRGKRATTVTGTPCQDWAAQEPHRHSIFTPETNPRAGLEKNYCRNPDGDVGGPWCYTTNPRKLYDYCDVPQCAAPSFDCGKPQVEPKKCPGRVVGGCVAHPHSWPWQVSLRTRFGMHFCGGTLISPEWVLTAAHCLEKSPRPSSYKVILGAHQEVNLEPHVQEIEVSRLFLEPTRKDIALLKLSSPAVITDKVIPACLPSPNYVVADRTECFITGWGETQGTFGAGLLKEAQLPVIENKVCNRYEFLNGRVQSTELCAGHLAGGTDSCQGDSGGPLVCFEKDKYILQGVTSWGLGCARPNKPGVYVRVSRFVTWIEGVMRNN
Protocol: Human fibrinogen was dissolved in a phosphate-buffered physiological saline (PBS) at a pH of 7.4 to prepare a 0.2% solution. Urokinase and thrombin were dissolved similarly in PBS to prepare a solution containing 120 units of urokinase and 50 units of thrombin per ml. […] Then, 0.1 ml of the urokinase-thrombin mixed solution was added, and a microchronometer was started. One minute after the starting of the microchronometer, a glass ball having a diameter of 8 mm was put on the coagulated surface, and the incubation was continued. The time which elapsed from the dissolution of the coagulated mass until the glass ball dropped onto the bottom of the test tube was measured. As a control, PBS alone was added.

serotonin ulcer = assay: Inhibitory activity on serotonin ulcer; type: in vivo, SD-strain male rats; conditions: 30 min before serotonin 20 mg/kg s.c., rats
Protocol: Seven week-old SD-strain male rats (body weight 200 to 220 g) were fasted for 24 hours but water was provided freely, and then used in the following experiment. Each of the test compounds suspended in 0.5% CMC was administered to the rats either orally or intraperitoneally, and 30 minutes later, serotonin (serotonin creatinine sulfate) was subcutaneously administered to the rats in a dose of 20 mg/kg. Four hours later, the animals were sacrificed. The abdomen was cut open, and the stomach was taken out from each animal. 12 ml of 1% formalin was injected into the stomach to inflate it, and the stomach was further dipped for about 10 minutes in 1% formalin for fixation. Then, the stomach was cut open on the side of the lesser curvature, and spread on a glass plate. The area of ulcers generated in the glandular stomach was measured by using a solid microscope. The sum of the area of ulcer for each animal was used as the ulcer index. The ulcer inhibiting ratio of the test compound was calculated in accordance with the following equation. [formula] The control group was given 0.5% CMC and serotonin alone.

thrombin = assay: Antithrombin activity (recalcification time of plasma); conditions: rabbit plasma
Protocol: Citrated blood (3.5% sodium citrate: blood=1:9) was drawn from a white native male rabbit (3 to 3.5 kg in body weight). The blood was centrifuged at 3000 rpm to prepare plasma which was used in the following experiment. One milliliter of the plasma was put in a small test tube having an inside diameter of 12 mm, and incubated at 37° C. Then, 0.1 ml of each of the test compounds, dissolved in PBS, was added, and the mixture was further incubated at 37° C. for 2 minutes. Then, 0.2 ml of 0.02 M CaCl2 was added, and a microchronometer was started. While occasionally shaking the test tube, the time which elapsed until the plasma coagulated was measured. As a control, PBS was used.

gastric secretion = assay: Inhibitory activity on gastric secretion (pylorus ligation); type: in vivo, male rats; conditions: for Amount of gastric juice: 4 hours after pylorus ligation, control 6.8 ± 0.6, in ml (unit assumed); for Acidity: control 109.1 ± 1.7
Protocol: Seven week-old DS-strain male rats (body weight 200 to 220 g) were fasted for 24 hours but water was provided freely, and then used in the following experiment.
The rats were anesthetized with ether. The abdomen was cut open along the median line to expose the pylorus. Then, the pylorus was ligated. After ligation, each of the test compounds dissolved in physiological saline was intraperitoneally administered to the animals. The abdomen was sutured, and after confirming that the animals recovered from ether anesthesia, they were kept in a wire cage while being deprived of food and water. Four hours later, the animals were killed by using ether. The abdomen was again cut open, and the stomach was removed. The gastric juice was collected, and its volume and acidity was measured. The acidity of the gastric juice was determined by titrating with 0.05 N sodium hydroxide using phenolphthalein as an indicator, and calculating the amount of sodium hydroxide required to neutralize the gastric juice which is estimated as the acidity of the gastric juice.
The control group was given physiological saline alone.
For the method of studying the inhibitory activity on the gastiic secretion, reference may be made to H. Shay, S. A. Komoroe, S. S. Fels, M. Meraze, M. Gruestein and H. Siplet: Gastroent., 5, 43 (1945), and M. L. Anson: J. Gen, Physiol., 21, 79 (1938).

indomethacin ulcer = assay: Inhibitory activity on indomethacin ulcer; type: in vivo, SD-strain male rats; conditions: 400 mg/kg oral, 30 min before indomethacin 20 mg/kg oral, rats
Protocol: Seven week-old SD-strain male rats (body weight 200 to 220 g) were fasted for 24 hours but water was provided freely, and then used in the following experiment.
Each of the test compounds suspended in 0.5% CMC was orally administered to the rats, and 30 minutes later, indomethacin was orally administered in a dose of 20 mg/kg. Six hours later, the animals were sacrificed. The abdomen was cut open, and the stomach was removed. 1% Evan's blue was injected in an amount of 0.5 ml/rat into the rats through the tail vein under ether anesthesia 10 minutes before sacrificing.
12 ml of a 1% formalin was injected into the stomach and the stomach was further dipped in 1% formalin for about 10 minutes for the fixation. The stomach was cut open on the side of the greater curvature, and spread on a glass plate. The lengths of ulcers generated in the glandular stomach were measured by using a solid microscope. The sum of the lengths of the ulcers for each animal was used as the ulcer index. The ulcer inhibiting ratio of the test compound was calculated in accordance with the following equation. [formula]
The control group was given 0.5% CMC and indomethacin alone.

[1] = 10^-3 M, first series, control 391.7 ± 16.1
[2] = 10^-4 M, first series, control 391.7 ± 16.1
[3] = 5 × 10^-3 M, second series, control 103.3 ± 7.6
[4] = 5 × 10^-4 M, second series, control 103.3 ± 7.6
[5] = 10^-3 M, second series, control 556.7 ± 12.6
[6] = 10^-4 M, second series, control 556.7 ± 12.6

Clot lysis time (plasmin; [1]): 546.7 s | Clot lysis time (plasmin; [2]): 411.7 s
SMILES: Cl.NC[C@H]1CC[C@H](C(O)c2ccc(CCC(=O)O)cc2)CC1 (relative stereo) [trans (307) hydrochloride, 3-[p-(trans-4-aminomethylcyclohexylhydroxymethyl)phenyl]propionic acid hydrochloride]
Ulcer inhibiting ratio (serotonin ulcer; 100 mg/kg intraperitoneal): 68.7% | Recalcification time (thrombin; [3]): 80.7 s | Recalcification time (thrombin; [4]): 104.0 s

Clot lysis time (plasmin; [1]): 476.7 s | Clot lysis time (plasmin; [2]): 423.3 s
SMILES: Cl.NCCCCCC(=O)c1ccc(CCC(=O)O)cc1 [(102) hydrochloride, 3-[p-(ε-aminocaproyl)phenyl]propionic acid hydrochloride]
Ulcer inhibiting ratio (serotonin ulcer; 100 mg/kg intraperitoneal): 76.2% | Recalcification time (thrombin; [3]): 67.0 s | Recalcification time (thrombin; [4]): 98.3 s

SMILES: Cl.NCc1ccc(C(=O)c2ccc(CCC(=O)O)cc2)cc1 [(112) hydrochloride, 3-[p-(4-aminomethylbenzoyl)phenyl]propionic acid hydrochloride]
Ulcer inhibiting ratio (serotonin ulcer; 200 mg/kg oral): 95.6%

Clot lysis time (plasmin; [5]): 670.0 s | Clot lysis time (plasmin; [6]): 543.3 s
SMILES: CCOC(=O)CCc1ccc(C(=O)CCCCCN)cc1 [(121) hydrochloride, ethyl 3-[p-ε-aminocaproyl)phenyl]propionate hydrochloride]
Inhibition ratio (acidity) (gastric secretion; 50 mg/kg i.p.): 48.9% | Inhibition ratio (amount of gastric juice) (gastric secretion; 50 mg/kg i.p.): 77.9% | Amount of gastric juice (gastric secretion; 50 mg/kg i.p.): 1.5 ± 0.4 | Acidity (gastric secretion; 50 mg/kg i.p.): 55.7 ± 9.3 μeq./ml | Inhibition ratio (acidity) (gastric secretion; 100 mg/kg i.p.): 58.9% | Inhibition ratio (amount of gastric juice) (gastric secretion; 100 mg/kg i.p.): 94.1% | Amount of gastric juice (gastric secretion; 100 mg/kg i.p.): 0.4 ± 0.1 | Acidity (gastric secretion; 100 mg/kg i.p.): 44.8 ± 5.0 μeq./ml | Inhibition ratio (acidity) (gastric secretion; 200 mg/kg i.p.): 74.4% | Inhibition ratio (amount of gastric juice) (gastric secretion; 200 mg/kg i.p.): 94.1% | Amount of gastric juice (gastric secretion; 200 mg/kg i.p.): 0.4 ± 0.1 | Acidity (gastric secretion; 200 mg/kg i.p.): 27.9 ± 4.4 μeq./ml | Ulcer inhibiting ratio (serotonin ulcer; 100 mg/kg oral): 72.3% | Ulcer inhibiting ratio (indomethacin ulcer): 89.7% | Recalcification time (thrombin; [3]): 96.0 s

Clot lysis time (plasmin; [5]): 736.7 s | Clot lysis time (plasmin; [6]): 521.7 s
SMILES: NCCCCCC(O)c1ccc(CCC(=O)O)cc1 (stereo not shown) [(302), 3-[p-(6-amino-1-hydroxyhex-1-yl)phenyl]-propionic acid]
Ulcer inhibiting ratio (serotonin ulcer; 100 mg/kg oral): 68.1% | Recalcification time (thrombin; [3]): 82.7 s

SMILES: NCC1CCC(C(=O)Oc2ccc(CCC(=O)O)cc2)CC1 (stereo not shown) [drawing 47, reference compound]
Ulcer inhibiting ratio (serotonin ulcer; 100 mg/kg oral): 17.5% | Ulcer inhibiting ratio (serotonin ulcer; 300 mg/kg oral): 73.8%

SMILES: NCC1CCC(C(=O)Oc2ccc(CCC(=O)O)cc2)CC1 (stereo not shown) [drawing 52, reference compound]
Inhibition ratio (acidity) (gastric secretion; 200 mg/kg i.p.): 52.5% | Inhibition ratio (amount of gastric juice) (gastric secretion; 200 mg/kg i.p.): 72.1% | Amount of gastric juice (gastric secretion; 200 mg/kg i.p.): 1.9 ± 0.6 | Acidity (gastric secretion; 200 mg/kg i.p.): 51.8 ± 10.0 μeq./ml | Inhibition ratio (acidity) (gastric secretion; 400 mg/kg i.p.): 70.3% | Inhibition ratio (amount of gastric juice) (gastric secretion; 400 mg/kg i.p.): 86.8% | Amount of gastric juice (gastric secretion; 400 mg/kg i.p.): 0.9 ± 0.2 | Acidity (gastric secretion; 400 mg/kg i.p.): 32.4 ± 2.4 μeq./ml

Clot lysis time (plasmin; [1]): > 1800 s | Clot lysis time (plasmin; [2]): > 1800 s | Clot lysis time (plasmin; 10^-5 M, first series, control 391.7 ± 16.1): 1045.0 ± 13.2 s | Clot lysis time (plasmin; 10^-6 M, first series, control 391.7 ± 16.1): 441.7 ± 21.8 s
SMILES: NCC1CCC(C(=O)Oc2ccc(CCC(=O)O)cc2)CC1 (stereo not shown) [drawing 54, reference compound]

Clot lysis time (plasmin; 10^-5 M, second series, control 556.7 ± 12.6): 1398 ± 53.0 s | Clot lysis time (plasmin; 10^-6 M, second series, control 556.7 ± 12.6): 600.0 ± 37.7 s
SMILES: NCC1CCC(C(=O)Oc2ccc(CCC(=O)O)cc2)CC1 (stereo not shown) [drawing 56, reference compound]

SMILES: NCC1CCC(C(=O)Oc2ccc(CCC(=O)O)cc2)CC1 (stereo not shown) [drawing 58, reference compound]
Recalcification time (thrombin; 5 × 10^-4 M, first series, […]): 122.7 ± 2.5 s | Recalcification time (thrombin; 5 × 10^-5 M, first series, […]): 115.3 ± 1.2 s

SMILES: NCC1CCC(C(=O)Oc2ccc(CCC(=O)O)cc2)CC1 (stereo not shown) [drawing 60, reference compound]
Recalcification time (thrombin; 5 × 10^-5 M, second series, control 103.3 ± 7.6): 144.0 ± 2.6 s | Recalcification time (thrombin; 5 × 10^-6 M, second series, control 103.3 ± 7.6): 114.7 ± 2.5 s
